Measured values from PubChem BioAssay (NCI).
“And” between values parts separate entries of the source, which are not always exact repeats. Equal values may be shown once.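 Dose response: 5 concentrations. Exposure: 48 h. Format: 96-well plates. Endpoint: linear interpolation; highest concentration if not reached. GI50: concentration for 50% inhibition of growth. TGI is the concentration that stops growth completely.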 The source made the active and inactive calls. Cut-off read from the data, not from the text of the source: active = GI50 below about 0.43 µM; inactive = the rest.

Tests used:
Assay in all cases: NCI tumour cell line growth inhibition, 48 h
MOLT-4 leukemia = test system: MOLT-4 leukemia
RXF 393 renal = test system: RXF 393 renal
SNB-75 CNS = test system: SNB-75 CNS
HCT-116 colon = test system: HCT-116 colon
NCI-H522 lung = test system: NCI-H522 lung
SN12C renal = test system: SN12C renal
EKVX NSCLC = test system: EKVX NSCLC
SR leukemia = test system: SR leukemia
SF-268 CNS = test system: SF-268 CNS
SNB-19 CNS = test system: SNB-19 CNS
HOP-92 NSCLC = test system: HOP-92 NSCLC
HOP-62 NSCLC = test system: HOP-62 NSCLC
SF-539 CNS = test system: SF-539 CNS
UO-31 renal = test system: UO-31 renal
ACHN renal = test system: ACHN renal
DMS 114 small cell lung = test system: DMS 114 small cell lung
SNB-78 CNS = test system: SNB-78 CNS
OVCAR-8 ovarian = test system: OVCAR-8 ovarian
NCI-H23 lung = test system: NCI-H23 lung
RPMI-8226 leukemia = test system: RPMI-8226 leukemia
XF 498 CNS = test system: XF 498 CNS
DLD-1 colon = test system: DLD-1 colon
A498 renal = test system: A498 renal
CAKI-1 renal = test system: CAKI-1 renal
M19-MEL melanoma = test system: M19-MEL melanoma
HCC-2998 colon = test system: HCC-2998 colon
HT29 colon = test system: HT29 colon
SK-MEL-5 melanoma = test system: SK-MEL-5 melanoma
CCRF-CEM leukemia = test system: CCRF-CEM leukemia
786-0 renal = test system: 786-0 renal
M14 melanoma = test system: M14 melanoma
SK-MEL-28 melanoma = test system: SK-MEL-28 melanoma
UACC-62 melanoma = test system: UACC-62 melanoma
IGROV1 ovarian = test system: IGROV1 ovarian
SW-620 colon = test system: SW-620 colon
U251 CNS = test system: U251 CNS
UACC-257 melanoma = test system: UACC-257 melanoma
OVCAR-3 ovarian = test system: OVCAR-3 ovarian
KM20L2 colon = test system: KM20L2 colon
SK-MEL-2 melanoma = test system: SK-MEL-2 melanoma
A549 NSCLC = test system: A549 NSCLC
SK-OV-3 ovarian = test system: SK-OV-3 ovarian
KM12 colon = test system: KM12 colon
OVCAR-4 ovarian = test system: OVCAR-4 ovarian
NCI-H460 lung = test system: NCI-H460 lung
SF-295 CNS = test system: SF-295 CNS
TK-10 renal = test system: TK-10 renal
OVCAR-5 ovarian = test system: OVCAR-5 ovarian
K-562 leukemia = test system: K-562 leukemia
MALME-3M melanoma = test system: MALME-3M melanoma
COLO 205 colon = test system: COLO 205 colon
LXFL 529 NSCLC = test system: LXFL 529 NSCLC

With `CCOC(=O)c1sc2c(C(=O)OCC)n3ccccc3c2c1N` the outcome (MOLT-4 leukemia) was “inactive”, the TGI (RXF 393 renal) was 50 µM and the TGI (SNB-75 CNS) was 99.1 µM. For the same compound, the GI50 (HCT-116 colon) was 35.9 µM, the GI50 (NCI-H522 lung) was 24.3 µM and the TGI (NCI-H522 lung) was 63 µM and 68 µM. For the same compound, the GI50 (SN12C renal) was 73.5 µM, the GI50 (EKVX NSCLC) was 70 µM and the outcome (SR leukemia) was “inactive”. For the same compound, the GI50 (SF-268 CNS) was 36.6 µM, the GI50 (SNB-19 CNS) was 23.9 µM and the TGI (SNB-19 CNS) was 90.9 µM and 65.5 µM. It also gave a GI50 (HOP-92 NSCLC) of 23.8 µM, a TGI (HOP-92 NSCLC) of 55.2 µM and a GI50 (HOP-62 NSCLC) of 22.5 µM. The TGI (HOP-62 NSCLC) was 57.3 µM and 70.7 µM, the GI50 (SF-539 CNS) was 22.3 µM and the TGI (SF-539 CNS) was 75.4 µM. For the same compound, the GI50 (UO-31 renal) was 49.2 µM, the TGI (UO-31 renal) was 67.1 µM and the GI50 (ACHN renal) was 89.4 µM. The GI50 (DMS 114 small cell lung) was 47.5 µM, the GI50 (SNB-78 CNS) was 27.3 µM and the GI50 (OVCAR-8 ovarian) was 52.1 µM. The GI50 (NCI-H23 lung) was 74.2 µM, the outcome (RPMI-8226 leukemia) was “inactive” and the GI50 (XF 498 CNS) was 33.9 µM. The TGI (XF 498 CNS) was 48 µM.
With `COc1cc2ccc3c4cc(OC)c(OCc5ccccc5)cc4cnc3c2cc1OC` the TGI (DLD-1 colon) was > 100 µM, the TGI (A498 renal) was > 100 µM and the TGI (CAKI-1 renal) was > 100 µM. For the same compound, the TGI (MOLT-4 leukemia) was > 100 µM, the TGI (M19-MEL melanoma) was > 100 µM and the TGI (HCC-2998 colon) was > 100 µM. The TGI (HT29 colon) was > 100 µM, the TGI (SK-MEL-5 melanoma) was > 100 µM and the TGI (CCRF-CEM leukemia) was > 100 µM. For the same compound, the TGI (SNB-75 CNS) was > 100 µM, the TGI (NCI-H522 lung) was > 100 µM and the TGI (SN12C renal) was > 100 µM. For the same compound, the TGI (EKVX NSCLC) was > 100 µM, the TGI (786-0 renal) was > 100 µM and the TGI (M14 melanoma) was > 100 µM. The TGI (SK-MEL-28 melanoma) was > 100 µM, the TGI (SF-268 CNS) was > 100 µM and the TGI (UACC-62 melanoma) was > 100 µM. For the same compound, the TGI (IGROV1 ovarian) was > 100 µM, the TGI (SW-620 colon) was > 100 µM and the TGI (U251 CNS) was > 100 µM. The TGI (UACC-257 melanoma) was > 100 µM, the TGI (HOP-62 NSCLC) was > 100 µM and the TGI (OVCAR-3 ovarian) was > 100 µM. The TGI (KM20L2 colon) was > 100 µM, the TGI (SK-MEL-2 melanoma) was > 100 µM and the TGI (A549 NSCLC) was > 100 µM. For the same compound, the TGI (UO-31 renal) was > 100 µM, the TGI (SK-OV-3 ovarian) was > 100 µM and the TGI (ACHN renal) was > 100 µM. For the same compound, the TGI (DMS 114 small cell lung) was > 100 µM, the TGI (SNB-78 CNS) was > 100 µM and the TGI (KM12 colon) was > 100 µM. For the same compound, the TGI (OVCAR-4 ovarian) was > 100 µM, the TGI (NCI-H460 lung) was > 100 µM and the TGI (OVCAR-8 ovarian) was > 100 µM. The TGI (SF-295 CNS) was > 100 µM, the TGI (NCI-H23 lung) was > 100 µM and the TGI (TK-10 renal) was > 100 µM. The TGI (RPMI-8226 leukemia) was > 100 µM, the TGI (OVCAR-5 ovarian) was > 100 µM and the TGI (XF 498 CNS) was > 100 µM. For the same compound, the TGI (K-562 leukemia) was > 100 µM, the TGI (MALME-3M melanoma) was > 100 µM and the TGI (COLO 205 colon) was > 100 µM. The TGI (LXFL 529 NSCLC) was > 100 µM.
